# According to article PMC5078989, “Targeted inhibition of the COP9 signalosome for treatment of cancer” (Nature Communications, 2016):
# System: panel of cancer cell lines
# Assay: Cell viability (CellTiter-Glo) dose-response across cancer cell line panel;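 further: after 72 h compound incubation with CellTiter-Glo ATP readout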
# Format: cell-based, human
# Settings: Homo sapiens
# Description: Next, we explored the effect of CSN5 inhibition on the viability of cancer cells. To obtain a comprehensive picture, we generated dose–response curves with a CSN5 inhibitor across more than 500 cancer cell lines in a previously described standardized setting[47] (Supplementary Data 1).
# A standardized CellTiter-Glo Assay (Promega #G7570) based on the quantification of ATP was applied according to the manufacturer's protocol to measure the amount of viable cells in culture. In brief, cells were seeded into 384-well plates at optimal density for each cell line. After 4 h, compounds were added at different concentrations in growth medium and incubated for another 72 h in a humidifying chamber at 37 °C and 5% CO2. […] EC50 values were calculated from the plot of percentage of inhibition versus inhibitor concentration using the nonlinear regression analysis software Origin 7.5SR6 (OriginLab Corp.).
compound,measurement,setting,value
"COCc1ccccc1NCc1ccc([C@H]2[C@@H](O)CCCc3cncn32)c(-c2ccccc2Cl)c1 [CSN5i-2, (5S,6S)-5-(2′-chloro-5-(((2-(methoxymethyl)phenyl)amino)methyl)-[1,1′-biphenyl]-2-yl)-6,7,8,9-tetrahydro-5H-imidazo[1,5-a]azepin-6-ol]",EC50,HEC-50B,200 nM
same,EC50,HEC-108,3130 nM
same,EC50,HEC-151,1280 nM
same,EC50,"HEC-251, HEC-251",513 nM
same,EC50,HEC-265,807 nM
same,EC50,HEL,404 nM
same,EC50,"HEL 92.1.7, HEL 92.1.7",491 nM
same,EC50,"HEY A8, Hey-A8",1990 nM
same,EC50,"HL-60, HL-60",871 nM
same,EC50,HLC-1,3330 nM
same,EC50,HLE,1360 nM
same,EC50,HLF,697 nM
same,EC50,HMC-1-8,1110 nM
same,EC50,HPAC,1990 nM
same,EC50,"HPBALL, HPB-ALL",1020 nM
same,EC50,"HRT-18, HRT-18",1030 nM
same,EC50,"HSC-2, HSC-2",892 nM
same,EC50,"HSC-3, HSC-3",637 nM
same,EC50,"HSC-4, HSC-4",1050 nM
same,EC50,"HT-29, HT-29",2390 nM
same,EC50,"HT-1080, HT-1080",407 nM
same,EC50,Hep3B,1090 nM
same,EC50,Hep 3B2.1-7,1800 nM
same,EC50,Hs 294T,1950 nM
same,EC50,Hs 695T,700 nM
same,EC50,"Hs766T, Hs 766T",10800 nM
same,EC50,Hs 852.T,2200 nM
same,EC50,Hs 936.T,1540 nM
same,EC50,Hs 944.T,778 nM
same,EC50,HuG1-N,14000 nM
same,EC50,"HuP-T3, HUP-T3",349 nM
same,EC50,"Huh-7, HuH-7",309 nM
same,EC50,"IGR-37, IGR-37",4040 nM
same,EC50,"IGR-39, IGR-39",1720 nM
same,EC50,"IGROV-1, IGROV1",7240 nM
same,EC50,"IPC-298, IPC-298",1230 nM
same,EC50,IST-MES2,609 nM
same,EC50,Ishikawa,1550 nM
same,EC50,"J82, J82",4930 nM
same,EC50,"JHH7, JHH-7",2440 nM
same,EC50,"JHH-4, JHH-4",388 nM
same,EC50,JHOS-2,> 30000 nM
same,EC50,JHUEM-2,912 nM
same,EC50,JHUEM-3,> 30000 nM
same,EC50,"JIMT-1, JIMT-1",22600 nM
same,EC50,JL-1,718 nM
same,EC50,JU77,857 nM
same,EC50,"JVM-2, JVM-2",553 nM
same,EC50,K029AX,3060 nM
same,EC50,"KARPAS-422, KARPAS-422",1750 nM
same,EC50,KATO III,9810 nM
same,EC50,"KBM-7, KBM-7",229 nM
same,EC50,KCI-MOH1,797 nM
same,EC50,"KE-97, KE-97",547 nM
same,EC50,KLE,1260 nM
same,EC50,"KM12, KM12",3470 nM
same,EC50,"KMM-1, KMM-1",685 nM
same,EC50,"KMRC-1, KMRC-1",1890 nM
same,EC50,KMRC-20,788 nM
same,EC50,"KMS-11, KMS-11",215 nM
same,EC50,KNS-60,6140 nM
same,EC50,"KNS-62, KNS-62",8050 nM
same,EC50,KO52,861 nM
same,EC50,KP-1N,1110 nM
same,EC50,KP-1NL,> 30000 nM
same,EC50,KP-2,942 nM
same,EC50,KP-3,1890 nM
same,EC50,"KP-4, KP4",1210 nM
same,EC50,KS-1,9040 nM
same,EC50,"KU-19-19, KU-19-19",1970 nM
same,EC50,KURAMOCHI,392 nM
same,EC50,"KYSE-30, KYSE-30",1700 nM
same,EC50,"KYSE-70, KYSE-70",6040 nM
same,EC50,"KYSE-150, KYSE-150",13400 nM
same,EC50,"KYSE-180, KYSE-180",2150 nM
same,EC50,"KYSE-410, KYSE-410",11000 nM
same,EC50,"Kasumi-3, Kasumi3",390 nM
same,EC50,Kasumi-6,4460 nM
same,EC50,L3.3,1390 nM
same,EC50,"L-363, L-363",251 nM
same,EC50,"L-428, L-428",590 nM
same,EC50,LC-1/sq-SF,24000 nM
same,EC50,LC-1F,6990 nM
same,EC50,"LC-2-ad, LC2/ad",3570 nM
same,EC50,LCLC-103H,21500 nM
same,EC50,LIM1899,884 nM
same,EC50,LIM2099,391 nM
same,EC50,LIM2405,2380 nM
same,EC50,LIM2550,1040 nM
same,EC50,LMSU,247 nM
same,EC50,"LN-18, LN-18",708 nM
same,EC50,"LN-229, LN-229",2600 nM
same,EC50,LO68,3370 nM
same,EC50,"LOU-NH91, LOU-NH91",1350 nM
same,EC50,LOX IMVI,952 nM
same,EC50,"LP-1, LP-1",1090 nM
same,EC50,"LS180, LS 180",448 nM
same,EC50,"LUDLU-1, LUDLU-1",3410 nM
same,EC50,"Li-7, Li-7",766 nM
same,EC50,"Lu-65, LU65",558 nM
same,EC50,"Lu-99, LU99",250 nM
same,EC50,M-07e,7180 nM
same,EC50,MCAS,692 nM
same,EC50,MCC13,846 nM
same,EC50,MCC14/2,282 nM
same,EC50,MCC26,1440 nM
same,EC50,MDA-MB-134-VI,694 nM
same,EC50,"MDA-MB-157, MDA-MB-157",2490 nM
same,EC50,MDA-MB-175-VII,3510 nM
same,EC50,"MDA-MB-231, MDA-MB-231",1580 nM
same,EC50,MDA-MB-435S,4470 nM
same,EC50,"MDA-MB-436, MDA-MB-436",387 nM
same,EC50,"MDA-MB-453, MDA-MB-453",7120 nM
same,EC50,"MDA-MB-468, MDA-MB-468",5940 nM
same,EC50,"MDST8, MDST8",1390 nM
same,EC50,"ME-180, ME180",630 nM
same,EC50,"MEC1, MEC-1",517 nM
same,EC50,MEL-HO,10500 nM
same,EC50,MEL-JUSO,11200 nM
same,EC50,MES-SA,889 nM
same,EC50,"MFE-280, MFE-280",5450 nM
same,EC50,"MFE-296, MFE-296",518 nM
same,EC50,MFE-319,11100 nM
same,EC50,"MFM-223, MFM223",769 nM
same,EC50,"MG-63, MG-63",478 nM
same,EC50,"MIA PaCa-2, MIA PaCa-2",1810 nM
same,EC50,MINO,204 nM
same,EC50,"MKN-1, MKN1",2030 nM
same,EC50,"MKN-45, MKN-45",1710 nM
same,EC50,"ML-2, ML-2",687 nM
same,EC50,MM127,508 nM
same,EC50,MM138,1520 nM
same,EC50,MM170,11400 nM
same,EC50,MM370,6220 nM
same,EC50,MM383,1190 nM
same,EC50,MM386,2070 nM
same,EC50,MM415,1370 nM
same,EC50,MM426,3040 nM
same,EC50,MM466,2250 nM
same,EC50,"MM473, MM473",2220 nM
same,EC50,MM485,521 nM
same,EC50,MM537,2630 nM
same,EC50,MM576,7150 nM
same,EC50,MM603,286 nM
